In publication PMC7078208, “Interaction of SHP-2 SH2 domains with PD-1 ITSM induces PD-1 dimerization and SHP-2 activation” (Communications Biology, 2020):

What was measured:
Format in all cases: biochemical
SHP-2-R138A = test: SHP-2 phosphatase activity, DiFMUP substrate, R138A mutant; conditions: Fig. 5c
Protocol: (§1) Catalytic activity of SHP-2 was monitored by a fluorescent assay using the substrate 6,8-difluoro-4-[…] (DiFMUP) as previously with slight modifications[38],[68]. Specifically, the phosphatase reactions were performed in 50 mM HEPES, pH 7.4, 100 mM NaCl and 10 mM DTT in 96-well black polystyrene plate, flat bottom, non-binding surface, using a final reaction volume of 100 µl. In all, 1.6 µg/ml of SHP-2-WT or mutant proteins were incubated with 20 µM DiFMUP with the indicated concentrations of phosphotyrosyl peptides or without peptide at 37 °C. For some experiments with highly SHP-2-activating peptides we used 0.5 µg/ml of SHP-2-WT so that activity measurements could fall within range. Fluorescence signal was monitored every 1 min for 3 min by a SpectraMax5 microplate reader and reaction rate was calculated by the change of fluorescence signal with time using excitation and emission wavelengths of 340 nm and 450 nm, respectively. Under these conditions, product formation was linear with respect to the time of incubation. Results were normalized against the basal activity determined for each condition in the absence of peptide and activity was calculated.

SHP-2-R32A = test: SHP-2 phosphatase activity, DiFMUP substrate, R32A mutant; conditions: 4-Ahx spacer peptide; Fig. 5c
Protocol: as §1

SHP-2-WT = test: SHP-2 phosphatase activity, DiFMUP substrate

## TE(pY)ATIVFP-Ahx4-QTE(pY)ATIVFPS [bpITSM, bisphosphoryl ITSM-ITSM peptide with 4-Ahx spacer]
SHP-2-R138A; 4-Ahx spacer peptide
  SHP-2 activity caused by peptide: abrogated
SHP-2-R138A
  peptide concentration at which a small induction of SHP-2 activity was observed: above 1 µM
SHP-2-R32A
  SHP-2 activity caused by peptide: abrogated
SHP-2-WT; DiFMUP substrate, Fig. 5a
  fold lower phosphopeptide concentration for robust increase in SHP-2 activity than pITIM-pITSM: 1000 fold
SHP-2-WT; Supplementary Fig. 12, peptides at 20 nM
  potency in inducing SHP-2 activation compared with bpIRS: approximately three times more potent
